# From patent US20240033349A1, “VACCINE AND METHOD OF PROTECTION AGAINST CORONAVIRUS INFECTION” (priority 2020, published 2024)
# Experiments:
# [1] = clinical examples, unlike other phthalhydrazide derivatives
# [2] = tested on: SARS-Cov virus (strain SARS-Covktp3); set-up: species or system mice; settings: mouse, in vivo
# [3] = tested on: virus of Venezuelan equine encephalomyelitis, strain Trinidad; set-up: species or system mice; settings: mouse, in vivo
# SARS-Cov-2 = settings: human, in vivo
# [4] = tested on: new coronavirus infection COVID-19; settings: human, in vivo
# [5] = tested on: MERS-CovN3/Jordanp3 virus; set-up: species or system mice; settings: mouse, in vivo
compound,measurement,setting,value
"Nc1cccc2c(=O)[nH][nH]c(=O)c12.[Na] [Tamerit, 5-amino-1,2,3,4-tetrahydrophthalazine-1,4-dione sodium salt]","Toxic, cumulative, mutagenic or teratogenic effects",[1],"no toxic, cumulative, mutagenic or teratogenic effects"
same,Protection effect,[2],50%
same,Survival rate higher than in animals immunized only with VVE,[3],25-30%
same,Survival rate of infected mice depending on the infecting dose,[3],60-100%
same,Control MSCT of the chest organs,SARS-Cov-2,pronounced positive dynamics
same,Dynamics of clinical and laboratory data,SARS-Cov-2,rapid positive dynamics of clinical and laboratory data
same,MSCT grade of lung lesion,SARS-Cov-2,CT-2.
same,SARS-Cov-2 RNA test,SARS-Cov-2,not detected.
same,ferritin,SARS-Cov-2,ferritin-973.3 ng/ml
same,interleukin-6,SARS-Cov-2,"924.6 pg/mL,"
same,Development of early pulmonary fibrosis by computed tomography,[4],not observed in any patient
same,Indications for artificial lung ventilation,[4],none of the observed patients treated with Tamerit had indications for artificial lung ventilation
same,Infection with COVID-19 after contact with the patients,[4],No one of them got infected
same,Reduction of duration of clinical manifestations of the acute phase of the disease,[4],1.5-2 weeks
same,Time to complete regression of symptoms,[4],3 to 4 days
same,Protection effect,[5],50%
